Experiments:
Test in all cases: Expanded lung cancer cell line proliferation assay
Assay type in all cases: cell-based
A549 = conditions: Homo sapiens; A549, 72 h, average of PrestoBlue and Cell Titer Glo; AKR1C3 3017.9 TPM; read-out: Absolute Qualified AC50
Source text: (§1) Cellular Proliferation Assay to Assess Compound Activity in an Expanded Panel of 57 NRF2 Pathway Mutant and Wild Type Lung Cancer Cell Lines.
(§2) Both the PrestoBlue Cell Viability Reagent and Cell Titer Glo were multiplexed together as the final assay readout. PrestoBlue is a cell permeable resazurin-based solution that utilizes the reducing power of living cells to quantitatively measure their proliferation. Cell Titer Glo measures the amount of ATP present, an indicator of metabolically active cells.
(§3) Expanded Lung Cancer Cell Line Proliferation Assay Outline, Analysis and Profiling Results
(§4) Cells were seeded into 384 well assay plates (Greiner Bio-One, Catalog #781080) using the Thermo Scientific Matrix WellMate microplate dispenser and Thermo Scientific Matrix WellMate small bore disposable tubing cartridges (Catalog #201-30002) in 30 μl of growth media (RPMI-1640 supplemented with 10% fetal bovine serum and 1% penicillin/streptomycin) per well (1000 to 2000 cells/well depending on doubling time). Following cell plating, assay plates were placed into tissue culture incubator at 37° C./5% CO2 overnight. The next day one assay plate for each cell line was used for a Day 0 Cell Titer Glo and PrestoBlue readout. 3 μl of PrestoBlue Cell Viability Reagent (Thermo Scientific, Catalog #A13262) was added to each well and then assay plates were incubated at 37° C./5% CO2 for 30 minutes prior to fluorescence readout on the EnVision 2105 multimode plate reader (Perkin Elmer). Following the PrestoBlue readout 18 μl of Cell Titer Glo (Promega, Catalog #G7572) was then added to each well, allowing plates to incubate at room temperature for 10 minutes prior to luminescence readout on the EnVision. Compound was then added to the remaining assay plates (each cell line run in triplicates) using the Labcyte Inc Echo 555 acoustic liquid handler. Compounds were arrayed into a Labcyte Inc Echo qualified 384 well LDV microplate (Cat #LP-0200-GNF10). Compounds were serially diluted 1:3.16 to generate an 8 point dose response for a final top concentration of 1 μM. DMSO (0.3%) was used as the neutral control (NC) and MG132 (30 μM) was used as the active control (AC). 90 nl of compounds were added to 30 μl of cells using the Labcyte Inc Echo 555 acoustic liquid handler for a final DMSO assay concentration of 0.3%. Following compound addition, assay plates were spun down in a tabletop centrifuge at 500 rpm for 1 minute and then placed into tissue culture incubator at 37° C./5% CO2 for 72 h. Following the 72 h incubation, all assay plates were readout using PrestoBlue and Cell Titer Glo using the same conditions previously described for the Day 0 readout. The Day 0 readout (untreated cells) was used to compare to the 72 h DMSO treated samples on each assay plate as a way of tracking each cell line's fold growth. NC1 control based normalization was used for data analysis in Helios, which incorporates the DMSO neutral control (NC) and MG132 active control (AC) for generating dose response curves that are then used to calculate the Absolute Qualified AC50 calls for each compound and cell line.
(§5) NC1 normalization calculation model: NC1: xn=±(x−NC)/(AC−NC)
(§6) +/− is set by the inhibition type parameter setting where NC and AC are averages (mean or median) over the corresponding NC and AC well values. The Qualified Absolute AC50 values for Compound 36 and Compound 40 are listed in the table below and are represented as the average activity in both the PrestoBlue and Cell Titer Glo assay readouts.
(§7) Absolute Qualified AC50 Values Listed Below are a Representation of Each Compounds' Average Activity in Both the PrestoBlue and Cell Titer Glo Assay Readouts.

NCI-H2122 = conditions: Homo sapiens; NCI-H2122, 72 h, average of PrestoBlue and Cell Titer Glo; AKR1C3 1507.5 TPM; read-out: Absolute Qualified AC50
Source text: as §1, §2, §3, §4, §5, §6, §7

HCC95 = conditions: Homo sapiens; HCC95, 72 h, average of PrestoBlue and Cell Titer Glo; AKR1C3 939.1 TPM; read-out: Absolute Qualified AC50
Source text: as §1, §2, §3, §4, §5, §6, §7

NCI-H1568 = conditions: NCI-H1568, 72 h, average of PrestoBlue and Cell Titer Glo; AKR1C3 2.8 TPM; read-out: Absolute Qualified AC50
Source text: as §1, §2, §3, §4, §5, §6, §7

NCI-H596 = conditions: Homo sapiens; NCI-H596, 72 h, average of PrestoBlue and Cell Titer Glo; AKR1C3 265.6 TPM; read-out: Absolute Qualified AC50
Source text: as §1, §2, §3, §4, §5, §6, §7

SW1271 = conditions: SW1271, 72 h, average of PrestoBlue and Cell Titer Glo; AKR1C3 2.4 TPM; read-out: Absolute Qualified AC50
Source text: as §1, §2, §3, §4, §5, §6, §7

NCI-H1435 = conditions: NCI-H1435, 72 h, average of PrestoBlue and Cell Titer Glo; AKR1C3 171.1 TPM; read-out: Absolute Qualified AC50
Source text: as §1, §2, §3, §4, §5, §6, §7

NCI-H1437 = conditions: Homo sapiens; NCI-H1437, 72 h, average of PrestoBlue and Cell Titer Glo; AKR1C3 2720.8 TPM; read-out: Absolute Qualified AC50
Source text: as §1, §2, §3, §4, §5, §6, §7

RERF-LC-AI = conditions: 72 h, average of PrestoBlue and Cell Titer Glo, AKR1C3 7.6 TPM, read-out: Absolute Qualified AC50
Source text: as §1, §2, §3, §4, §5, §6, §7

NCI-H2347 = conditions: Homo sapiens; NCI-H2347, 72 h, average of PrestoBlue and Cell Titer Glo; AKR1C3 8.9 TPM; read-out: Absolute Qualified AC50
Source text: as §1, §2, §3, §4, §5, §6, §7

NCI-H520 = conditions: Homo sapiens; NCI-H520, 72 h, average of PrestoBlue and Cell Titer Glo; AKR1C3 608.9 TPM; read-out: Absolute Qualified AC50
Source text: as §1, §2, §3, §4, §5, §6, §7

SBC5 = conditions: Homo sapiens, SBC-5; SBC5, 72 h, average of PrestoBlue and Cell Titer Glo; AKR1C3 5.5 TPM; read-out: Absolute Qualified AC50
Source text: as §1, §2, §3, §4, §5, §6, §7

NCI-H23 = conditions: Homo sapiens; NCI-H23, 72 h, average of PrestoBlue and Cell Titer Glo; AKR1C3 1 TPM; read-out: Absolute Qualified AC50
Source text: as §1, §2, §3, §4, §5, §6, §7

COLO-699 = conditions: COLO-699, 72 h, average of PrestoBlue and Cell Titer Glo; AKR1C3 expression: no data available; read-out: Absolute Qualified AC50
Source text: as §1, §2, §3, §4, §5, §6, §7

SMILES	AC50 (A549) [nM]	AC50 (NCI-H2122) [nM]	AC50 (HCC95) [nM]	AC50 (NCI-H1568) [nM]	AC50 (NCI-H596) [nM]	AC50 (SW1271) [nM]	AC50 (NCI-H1435) [nM]	AC50 (NCI-H1437) [nM]	AC50 (RERF-LC-AI) [nM]	AC50 (NCI-H2347) [nM]	AC50 (NCI-H520) [nM]	AC50 (SBC5) [nM]	AC50 (NCI-H23) [nM]	AC50 (COLO-699) [nM]
CN1c2ccc(F)cc2C(=O)CC12CCN(C(=O)NCc1ccc(F)c(NCCO)c1)CC2 [Example 36, 6′-fluoro-N-(4-fluoro-3-((2-hydroxyethyl)amino)benzyl)-1′-methyl-4′-oxo-3′,4′-dihydro-1′H-spiro[piperidine-4,2′-quinoline]-1-carboxamide]	301	258	287	> 1000	754	> 1000	478	257	> 1000	> 1000	> 1000	> 1000	> 1000	> 1000
O=C1CC2(CCN(C(=O)NCc3ccc(F)cc3)CC2)Nc2ccc(F)cc21 [Example 40]	56	56	69	> 1000	334	> 1000	273	68	> 1000	> 1000	> 1000	> 1000	> 1000	> 1000

Reference: patent US11970497B2, “Tricyclic AKR1C3 dependent KARS inhibitors” (Novartis AG, priority 2019, dated 2024)
